Laboratory results from patent US5464834A, “N-substituted N'-heterobicyclic piperazines having pharmaceutical activity” (Adir et Compagnie, priority 1992, dated 1995).
Where two headings read alike, the source gives them in different places.

Legend:
5HT1A receptors [1] = target: T1, 5HT1A receptors (Rattus norvegicus, UniProt P19327); test: Flat body posture (FBP), agonist (alone) and antagonist (vs 8-OH-DPAT); type: in vivo, rat (male Wistar); design: from tissue; host or cells: whole living male Wistar rats (endogenous receptor); details: for ED50: rat, sc
T1 sequence (P19327 1-422): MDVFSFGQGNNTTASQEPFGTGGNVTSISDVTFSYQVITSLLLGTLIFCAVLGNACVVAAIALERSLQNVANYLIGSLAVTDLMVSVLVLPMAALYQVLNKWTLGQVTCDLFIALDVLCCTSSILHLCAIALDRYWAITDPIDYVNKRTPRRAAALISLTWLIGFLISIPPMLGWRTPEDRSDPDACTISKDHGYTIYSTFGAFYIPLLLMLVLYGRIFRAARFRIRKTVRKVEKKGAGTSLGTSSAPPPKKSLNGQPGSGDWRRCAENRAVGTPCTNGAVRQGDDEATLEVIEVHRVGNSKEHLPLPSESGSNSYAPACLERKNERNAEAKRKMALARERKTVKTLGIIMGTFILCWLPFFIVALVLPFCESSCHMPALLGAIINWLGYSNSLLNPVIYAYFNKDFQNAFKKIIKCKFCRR
Description: (§1) The tests were carried out using male Wistar rats weighing 200 to 220 g having free access to their food and to their drinking water in standard cages.
(§2) The animals are isolated individually for the tests for hypothermia, corticosterone secretion and flat body posture, or combined in groups of three for the tailflick test.
(§3) The compounds to be studied were administered by the subcutaneous route (s.c.) 60 minutes before the beginning of the test, that is to say 30 minutes before the solvent (agonist responses) or the 8-OH-DPAT (antagonist responses).
(§4) In all of the tests the solvent is used in parallel as a control. The animals were left to rest in their cage during the period between the injections and the evaluation. For the agonist studies, the solvent was administered at 1 ml/kg s.c. 30 minutes before the beginning of the test. For the antagonist studies, doses of 8-OH-DPAT that induce sub-maximal responses were chosen, that is doses of 0.63, 0.16, 0.16 and 0.16 mg/kg s.c. for, respectively, the tail flick test, flat body posture test, corticosterone secretion test and hypothermia test.
(§5) The same animals were used to evaluate the influence of the compounds studied on FBP and on the determination of the plasma concentration of CS. All of the tests were carried out in the morning between 10.30 and 12.300 that is to say when the circadian levels of CS are lowest.
25 minutes after the treatment (that is to say 5 minutes before decapitation) the animals are observed in their cages and the presence or absence of FBP is noted.
(§6) The presence of FBP is defined by a characteristic posture of the animal. That posture is in the ventral decubitus position with the posterior limbs clearly extended. 5 minutes after the observation of FBP, the animals are decapitated and the blood from the trunk is collected in cooled tubes containing 50 μl of a 10% EDTA solution. After centrifugation at 4000 revs/min, the plasma is removed and stored at -30° C. until determination.
(§7) In general, after variance analysis, the results are subjected to the Dunett test. The results are taken as significant if p <0.05.
For the dose-response for the induction and inhibition of FBP, the ED50 values (doses at which 50% of the animals show a response) were calculated by the Litchfield and Wilcoxon method.
(§8) The doses of the compounds tested are all expressed in base terms. Unless specified otherwise, all of the compounds were dissolved in sterile water (to which if necessary a few drops of lactic acid were added) and administered at a volume of 1 ml/kg s.c.

5HT1A receptors [2] = target: T1, 5HT1A receptors; test: In vitro binding test, 5HT1A receptors ([3H]-8-OH-DPAT, hippocampus membranes); design: The hippocampus of the brains of decapitated rats was immediately frozen; from tissue; host or cells: hippocampus membranes of male Wistar rats; species or system rat (male Wistar)
Description: as §1
The hippocampus of the brains of decapitated rats was immediately frozen on solid carbon dioxide and then kept at -80° C. until preparation of the membranes. The tissue was homogenised at 4° C. in the appropriate buffer using a Polytron (Brinkman Instruments, Lucerne, Switzerland) and centrifuged at 20,000 revs/min.
Incubation was carried out for 30 minutes at 25° C. Non-specific binding was established by […] of 5HT. The tests were terminated by rapid filtration using a Brandel harvester through glass fibre filters pretreated with 0.1% polyethylene imine.
The IC50 values were determined in accordance with process 8 of Tallarida R. J. and Murray R. B., Manual of Pharmacological calculations with computer programs, Springer Verlag, New York, (1987).
The pKi was calculated in accordance with the following formula: [formula] wherein [L] is the concentration of the hot ligand (^[3] H-8-OH-DPAT, 0.4 nM) and Kd is the apparent dissociation constant determined from the saturation experiments.
The substances studied were dissolved in the incubation buffer.
Binding of 5HT1A receptors

5HT1A receptors [3] = target: T1, 5HT1A receptors; test: Spontaneous tail flick (STF) test, agonist (alone) and antagonist (vs 8-OH-DPAT); type: in vivo, rat (male Wistar); design: from tissue; host or cells: whole living male Wistar rats (endogenous receptor); details: rat, sc; antagonist test; s.c.; vs 8-OH-DPAT 0.63 mg/kg s.c.; read-out: STFs ID50 (95% CL) + DPAT
Description: as §1, §2, §3, §4
The tail flicks were determined on the animals in horizontal opaque plastics cylinders with the tail of the animals hanging freely on the edge of the laboratory work bench. After allowing 5 minutes for adaptation, the number of movements made in 5 minutes was recorded. An STF is defined as being an elevation of the tail to a level higher than that of the axis of the body [Millan M. J. et al., J. Pharmacol. Exp. Ther., 256, 973-982 (1990)].
as §7, §8

5HT1A receptors [4] = target: T1, 5HT1A receptors; test: Body temperature / hypothermia, agonist (alone) and antagonist (vs 8-OH-DPAT); type: in vivo, rat (male Wistar); design: from tissue; host or cells: whole living male Wistar rats (endogenous receptor); details: for HYPOTHERMIA MED alone: agonist test, compound alone s.c., minimum effective dose vs control; for ED50: rat, sc, antagonist test, s.c., vs 8-OH-DPAT 0.16 mg/kg s.c., read-out: HYPOTHERMIA ID50 (95% CL) + DPAT
Description: as §1, §2, §3, §4
The rats are immobilised and a lubricated digital thermometer (Termistroprobe of Testotherm, Basle, Switzerland) is inserted into the rectum to a depth of 5 cm. 30 seconds after insertion, the temperature is read on a digital scale. The percentage inhibition is calculated using the formula given above.
as §7, §8

5HT1A receptors [5] = target: T1, 5HT1A receptors; test: Corticosterone secretion (CS), agonist (alone) and antagonist (vs 8-OH-DPAT); type: in vivo, rat (male Wistar); design: from tissue; host or cells: whole living male Wistar rats (endogenous receptor); details: for CS secretion MED alone: agonist test, compound alone s.c., minimum effective dose vs control; for ED50: rat, sc, antagonist test, s.c., read-out: CS secretion ID50 (95% CL) + DPAT
Description: as §1, §2, §3, §4, §5, §6
The CS was determined by a radio-competitive determination for a plasma protein that binds the CS: transcortine. The latter is obtained from a monkey serum. The separation of the CS-transcortine complexes from the free CS was carried out by means of a solution of dextran and active carbon. The detection limit was 50 pg/tube. The intra- and inter-experiment variations in determination were 5 and 15% respectively [cf Rivet J. M. et al, Eur. J. Pharmacol., 183,634-635 (1990)].
The CS base rates in the plasma never being zero, the following formula was used to calculated the percentage inhibition of plasma CS induced by 8-OH-DPAT: [formula]
as §7, §8

[6] = agonist test, compound alone s.c., read-out: FBP ED50 (95% CL) alone
[7] = antagonist test, s.c., vs 8-OH-DPAT 0.16 mg/kg s.c., read-out: FBP ID50 (95% CL) + DPAT
[8] = rat hippocampus, [3H]-8-OH-DPAT 0.4 nM, 30 min at 25° C, read-out: AFFINITY (pKi) (converted)

Structure (SMILES) | ED50 (5HT1A receptors [1]; [6]) | ED50 (5HT1A receptors [1]; [7]) | % MPA (% maximum possible antagonism), FBP (5HT1A receptors [1]; vs 8-OH-DPAT 0.16 mg/kg s.c.) | Ki (5HT1A receptors [2]; [8]) | ED50 (5HT1A receptors [3]) | HYPOTHERMIA MED alone (5HT1A receptors [4]) | ED50 (5HT1A receptors [4]) | CS secretion MED alone (5HT1A receptors [5]) | ED50 (5HT1A receptors [5]; vs 8-OH-DPAT 0.16 mg/kg s.c.) | % MPA (% maximum possible antagonism), CS secretion (5HT1A receptors [5]; vs 8-OH-DPAT 0.16 mg/kg s.c.) | Ki (5HT1A receptors [2])
c1cc2c(c(N3CCN(CCc4cccc5ccccc45)CC3)c1)OCCO2 [Example 5, 4-(Benzodioxan-5-yl)-1-[2-(naphth-1-yl)ethyl]piperazine] | > 2.5 mg/kg | < 2.5 mg/kg | – | 1.29 nM | – | > 10.0 mg/kg | 0.32 mg/kg | > 2.5 mg/kg | 2.5 mg/kg | – | –
c1cc2c(c(N3CCN(CCc4csc5ccccc45)CC3)c1)OCCO2 [Example 7, 4-(Benzodioxan-5-yl)-1-[2-(benzo[b]thiophen-3-yl)ethyl]piperazine] | – | – | – | – | – | – | – | – | – | – | 0.724 nM

Further lines, with some results ahead:

ED50 (5HT1A receptors [1]; [6]) | ED50 (5HT1A receptors [1]; [7]) | % MPA (% maximum possible antagonism), FBP (5HT1A receptors [1]; vs 8-OH-DPAT 0.16 mg/kg s.c.) | Ki (5HT1A receptors [2]; [8]) | ED50 (5HT1A receptors [3]) | HYPOTHERMIA MED alone (5HT1A receptors [4]) | ED50 (5HT1A receptors [4]) | CS secretion MED alone (5HT1A receptors [5]) | ED50 (5HT1A receptors [5]; vs 8-OH-DPAT 0.16 mg/kg s.c.) | % MPA (% maximum possible antagonism), CS secretion (5HT1A receptors [5]; vs 8-OH-DPAT 0.16 mg/kg s.c.) | Structure (SMILES) | Ki (5HT1A receptors [2])
< 10 mg/kg | 1.6 mg/kg | 100% | 1.7 nM | < 0.16 mg/kg | > 2.5 mg/kg | 0.5 mg/kg | > 10.0 mg/kg | 1.56 mg/kg | 100% | c1cc2c(c(N3CCN(CC4Cc5ccsc5C4)CC3)c1)OCCO2 (racemic) [Example 3] | –
– | – | – | 0.38 nM | – | – | – | – | – | – | c1cc2c(c(N3CCN(CCCCc4ccsc4)CC3)c1)OCCO2 [Example 4, 4-(Benzodioxan-5-yl)-1-[4-(thiophen-3-yl)butyl]piperazine] | –
– | – | – | 1.02 nM | – | – | – | – | – | – | c1cc2c(c(N3CCN(CCc4ccc5ccccc5c4)CC3)c1)OCCO2 [Example 6, 4-(Benzodioxan-5-yl)-1-[2-(naphth-2-yl)ethyl]piperazine] | –
